According to patent US20150004110A1, “NOVEL ANTI-AGING AND DEPIGMENTING COSMETIC COMPOSITIONS” (DIVERCHIM, priority 2011, published 2015):

System: skin explants (abdominoplasty)
Test: Histological assessment of the general morphology of skin explants maintained in survival
Assay type: cell-based, human
Conditions: 2 μg/mL in DMSO, after 9 days of survival
Method: 1. Preparation of the explants • During abdominoplasty of a person, 45 skin explants were prepared. The explants were put in BEM medium (BIO-EC's Explants Medium) for survival at 37° C. in humid atmosphere, enriched with 5% CO2.
2. Application of the products • The solutions are prepared in DMSO from pure products, in order to obtain final concentrations of […] by incorporating an identical volume of 10 μl in each well and for each treatment. The treatment was carried out in the survival medium on days 0, 1, 2, 5 and 7.
3. Taking samples • On D0, the 3 explants of batch TO were taken and each explant was cut in two. One part was fixed in buffered formol for observation of the general morphology. The other was frozen and stored at −80° C. • On D5 and D9, 3 explants from each batch were taken and treated in the same way.
4. […]
5. Microscopic observations • The microscopic observations were carried out by light microscopy and fluorescence microscopy, using a Orthoplan-type Leica microscope, with ×25 objective. The images were recorded with a Sony DXC 390P tri CCD camera and stored using the Leica IM1000 data archiving software. • The general morphology was observed on sections in paraffin after staining with Masson trichrome, Goldner variant according to procedure MO-H-157. […]

## C[C@]12CC[C@H](O)CC1=CC[C@@H]1[C@@H]2CC[C@]2(C)C(=O)CC[C@@H]12 [(+)-dehydroisoandrosterone, reference compound]
  General morphology: epidermal structure and papillary dermis: does not alter the epidermal structure or the papillary dermis
